Assay results published in US11932850B2, “Cancer chemoprevention with STAT3 blockers” (Jill M. Siegfried, LLC, priority 2018, dated 2024).

Test system: H1975 xenografts
Assay: H1975 NSCLC xenograft tumor growth
Type: in vivo, nude mice
Details: 5 mg/kg/d iv, 5 days per week, compared to CS3M
Method: Based on the in vitro effects of CS3D, antitumor effects were evaluated in mice harboring established NSCLC xenografts (10 tumors/group). When tumors reached 200 mm3, mice were given daily intravenous injections (tail vein) of CS3D or CS3M (5 mg/kg/d), 5 days per week, and tumor growth was monitored for 14-20 days. CS3D caused a significant and robust tumor growth inhibition in 201T- and H1975-derived xenografts compared to treatment with CS3M.
FIGS. 7A and 7B show CS3D suppresses NSCLC xenograft tumor growth. Intravenous delivery of CS3D inhibits tumor growth in both wild-type (FIG. 7A, 201T) and mutant EGFR T790M (FIG. 7B, H1975) xenografts. Approximately 1×10^6 cells were inoculated subcutaneously in the flanks of nude mice. Following the development of palpable tumors (about […]), mice were randomized and given daily injections of either CS3D or CS3M (5 mg/kg/day; 10 tumors/group). Experiments were done twice as biological replicates. Tumor volumes were recorded every other day while animal weights were also monitored during the course of the treatment. […]
All studies were approved by the University of Minnesota Institutional Animal Care and Use Committee and were carried out in accordance with institutional guidelines for animal care. […] Volumes were calculated from the formula V=(Length×Width^2)/2. […]

Substance: CS3D (DNA GATTTACGGGAAATGCSCATTTCCC; cyclic decoy with two hexaethylene glycol linkers, further chemistry not given here)
- reduction in tumor growth (tumor volume): 81.7%
